Values after ≈ are worked out from the molar mass of the structure shown.
Test system: Mycobacterium tuberculosis
Experiment: Antimicrobial activity against p-aminosalicylic acid/isonicotinic acid hydrazide/etambutol/rifampicin resistant Mycobacterium tuberculosis Spec. 210 by classical test tube method
Assay type: functional

Structure (SMILES): Clc1cccc(-n2cc(CN3CCN(c4noc5ccccc45)CC3)nn2)c1
- MIC: 63.4 µM (≈ 25 µg/mL)

Structure (SMILES): O=C(CCc1c[nH]c2ccccc12)N1CCN(c2noc3cc(Cl)ccc23)CC1
- MIC: > 200 µM

Structure (SMILES): Clc1ccc2c(N3CCN(Cc4cn(-c5ccc(Br)cc5)nn4)CC3)noc2c1
- MIC: > 200 µM

Structure (SMILES): Brc1ccc(-n2cc(CN3CCN(c4noc5ccccc45)CC3)nn2)cc1
- MIC: > 200 µM

Structure (SMILES): O=C(Cc1c[nH]c2ccccc12)N1CCN(c2noc3ccccc23)CC1
- MIC: > 200 µM

Structure (SMILES): COc1ccc(-n2cc(CN3CCN(c4noc5ccccc45)CC3)nn2)cc1
- MIC: > 200 µM

Structure (SMILES): O=C(Cc1c[nH]c2ccccc12)N1CCN(c2noc3cc(Cl)ccc23)CC1
- MIC: 127 µM (≈ 50.1 µg/mL)

Structure (SMILES): O=C(CCc1c[nH]c2ccccc12)N1CCN(c2noc3ccccc23)CC1
- MIC: > 200 µM

Structure (SMILES): O=C(CCCc1c[nH]c2ccccc12)N1CCCN(c2noc3ccccc23)CC1
- MIC: > 200 µM

Structure (SMILES): O=C(CCCc1c[nH]c2ccccc12)N1CCN(c2noc3ccccc23)CC1
- MIC: > 200 µM

Structure (SMILES): COc1cccc(-n2cc(CN3CCCN(c4noc5ccccc45)CC3)nn2)c1
- MIC: > 200 µM

Structure (SMILES): FC(F)(F)c1cc(-n2cc(CN3CCCN(c4noc5ccccc45)CC3)nn2)ccc1Br
- MIC: 24 µM (≈ 12.5 µg/mL)

Structure (SMILES): Fc1ccc(-n2cc(CN3CCCN(c4noc5ccccc45)CC3)nn2)cc1
- MIC: 127 µM (≈ 50 µg/mL)

Structure (SMILES): Clc1ccc(-n2cc(CN3CCN(c4noc5cc(Cl)ccc45)CC3)nn2)cc1
- MIC: > 200 µM

Structure (SMILES): FC(F)(F)c1cccc(-n2cc(CN3CCN(c4noc5ccccc45)CC3)nn2)c1
- MIC: 29.2 µM (≈ 12.5 µg/mL)

Structure (SMILES): C#CCN1CCCN(c2noc3ccccc23)CC1
- MIC: 196 µM (≈ 50 µg/mL)

Structure (SMILES): COc1ccc(-n2cc(CN3CCN(c4noc5cc(Cl)ccc45)CC3)nn2)cc1
- MIC: 118 µM (≈ 50.1 µg/mL)

Structure (SMILES): FC(F)(F)c1cc(-n2cc(CN3CCN(c4noc5ccccc45)CC3)nn2)ccc1Br
- MIC: 6.16 µM (≈ 3.13 µg/mL)

Structure (SMILES): NNC(=O)c1ccncc1 [ISONIAZID]
- MIC: 91.1 µM (≈ 12.5 µg/mL)

Structure (SMILES): O=C(CCCc1c[nH]c2ccccc12)N1CCN(c2noc3cc(Cl)ccc23)CC1
- MIC: > 200 µM

Structure (SMILES): Clc1ccc(-n2cc(CN3CCN(c4noc5ccccc45)CC3)nn2)cc1
- MIC: > 200 µM

Structure (SMILES): Clc1ccc(-n2cc(CN3CCCN(c4noc5ccccc45)CC3)nn2)cc1
- MIC: > 200 µM

Structure (SMILES): C#CCN1CCN(c2noc3cc(Cl)ccc23)CC1
- MIC: > 200 µM

Structure (SMILES): Fc1ccc(-n2cc(CN3CCN(c4noc5ccccc45)CC3)nn2)cc1
- MIC: 132 µM (≈ 50 µg/mL)

Structure (SMILES): Clc1cccc(-n2cc(CN3CCCN(c4noc5ccccc45)CC3)nn2)c1
- MIC: 122 µM (≈ 50.1 µg/mL)

Structure (SMILES): Brc1ccc(-n2cc(CN3CCCN(c4noc5ccccc45)CC3)nn2)cc1
- MIC: > 200 µM

Structure (SMILES): O=C(CCc1c[nH]c2ccccc12)N1CCCN(c2noc3ccccc23)CC1
- MIC: > 200 µM

Structure (SMILES): Fc1ccc(-n2cc(CN3CCN(c4noc5cc(Cl)ccc45)CC3)nn2)cc1
- MIC: 121 µM (≈ 50.1 µg/mL)

Structure (SMILES): O=[N+]([O-])c1ccc(-n2cc(CN3CCN(c4noc5ccccc45)CC3)nn2)cc1
- MIC: > 200 µM

Structure (SMILES): CCc1ccc(-n2cc(CN3CCCN(c4noc5ccccc45)CC3)nn2)cc1
- MIC: > 200 µM

Structure (SMILES): CCc1ccc(-n2cc(CN3CCN(c4noc5ccccc45)CC3)nn2)cc1
- MIC: > 200 µM

Structure (SMILES): O=[N+]([O-])c1ccc(-n2cc(CN3CCCN(c4noc5ccccc45)CC3)nn2)cc1
- MIC: > 200 µM

Structure (SMILES): COc1cccc(-n2cc(CN3CCN(c4noc5ccccc45)CC3)nn2)c1
- MIC: 128 µM (≈ 50 µg/mL)

Structure (SMILES): O=C(Cc1c[nH]c2ccccc12)N1CCCN(c2noc3ccccc23)CC1
- MIC: 134 µM (≈ 50 µg/mL)

Structure (SMILES): CCc1ccc(-n2cc(CN3CCN(c4noc5cc(Cl)ccc45)CC3)nn2)cc1
- MIC: > 200 µM

Structure (SMILES): COc1ccc(-n2cc(CN3CCCN(c4noc5ccccc45)CC3)nn2)cc1
- MIC: > 200 µM

Structure (SMILES): FC(F)(F)c1cccc(-n2cc(CN3CCCN(c4noc5ccccc45)CC3)nn2)c1
- MIC: 28.3 µM (≈ 12.5 µg/mL)

Structure (SMILES): C#CCN1CCN(c2noc3ccccc23)CC1
- MIC: > 200 µM

Structure (SMILES): O=[N+]([O-])c1ccc(-n2cc(CN3CCN(c4noc5cc(Cl)ccc45)CC3)nn2)cc1
- MIC: > 200 µM

From ChEMBL document CHEMBL3792309, “Seeking potent anti-tubercular agents: Design, synthesis, anti-tubercular activity and docking study of various ((triazoles/indole)-piperazin-1-yl/1,4-diazepan-1-yl)benzo[d]isoxazole derivatives” (Bioorg Med Chem Lett, 2016)
